Results from ChEMBL document CHEMBL1201862, “PubChem BioAssay data set” (2004).
The source made the active and inactive calls.

Assays:
Bcl-2-related protein A1 = molecular target: T1, Bcl-2-related protein A1 (Mus musculus, UniProt Q07440); assay type: functional;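 note: confirmatory dose–response counterscreen on Bfl-1, used to check hits from a UBC13 polyubiquitin inhibitor campaign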
T1 sequence (Q07440 whole entry): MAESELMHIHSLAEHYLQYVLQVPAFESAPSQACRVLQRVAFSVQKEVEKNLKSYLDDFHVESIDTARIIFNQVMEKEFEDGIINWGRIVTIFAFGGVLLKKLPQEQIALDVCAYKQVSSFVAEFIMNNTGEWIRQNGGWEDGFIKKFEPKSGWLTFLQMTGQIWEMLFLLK

[1] = molecular target: T2, Ubiquitin-conjugating enzyme E2 N (Homo sapiens, UniProt P61088); assay type: functional
T2 sequence (P61088 whole entry): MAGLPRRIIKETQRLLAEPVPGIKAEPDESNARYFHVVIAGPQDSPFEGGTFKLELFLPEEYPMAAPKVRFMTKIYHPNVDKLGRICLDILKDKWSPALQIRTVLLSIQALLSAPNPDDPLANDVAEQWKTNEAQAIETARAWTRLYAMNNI

[2] = molecular target: T2, Ubiquitin-conjugating enzyme E2 N; assay type: functional; remark: listed apart in the source
[3] = molecular target: DNA dC->dU-editing enzyme APOBEC-3A (Homo sapiens, UniProt P31941); assay: APOBEC3A DNA deaminase inhibitors, dose response, biochemical (AID 504722); assay type: functional
Chain of DNA dC->dU-editing enzyme APOBEC-3A (P31941 whole entry): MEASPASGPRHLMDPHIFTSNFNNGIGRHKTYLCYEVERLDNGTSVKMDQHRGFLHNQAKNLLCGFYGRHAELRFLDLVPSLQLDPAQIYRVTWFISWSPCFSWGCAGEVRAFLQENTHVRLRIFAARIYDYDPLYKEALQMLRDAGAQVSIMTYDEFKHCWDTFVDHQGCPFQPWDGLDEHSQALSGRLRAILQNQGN

[4] = molecular target: T3, Voltage-gated N-type calcium channel alpha-1B subunit/Amyloid beta A4 precursor protein-binding family A member 1 (Homo sapiens, UniProt Q00975+Q02410); assay type: protein assay
T3 sequence (Q00975 whole entry): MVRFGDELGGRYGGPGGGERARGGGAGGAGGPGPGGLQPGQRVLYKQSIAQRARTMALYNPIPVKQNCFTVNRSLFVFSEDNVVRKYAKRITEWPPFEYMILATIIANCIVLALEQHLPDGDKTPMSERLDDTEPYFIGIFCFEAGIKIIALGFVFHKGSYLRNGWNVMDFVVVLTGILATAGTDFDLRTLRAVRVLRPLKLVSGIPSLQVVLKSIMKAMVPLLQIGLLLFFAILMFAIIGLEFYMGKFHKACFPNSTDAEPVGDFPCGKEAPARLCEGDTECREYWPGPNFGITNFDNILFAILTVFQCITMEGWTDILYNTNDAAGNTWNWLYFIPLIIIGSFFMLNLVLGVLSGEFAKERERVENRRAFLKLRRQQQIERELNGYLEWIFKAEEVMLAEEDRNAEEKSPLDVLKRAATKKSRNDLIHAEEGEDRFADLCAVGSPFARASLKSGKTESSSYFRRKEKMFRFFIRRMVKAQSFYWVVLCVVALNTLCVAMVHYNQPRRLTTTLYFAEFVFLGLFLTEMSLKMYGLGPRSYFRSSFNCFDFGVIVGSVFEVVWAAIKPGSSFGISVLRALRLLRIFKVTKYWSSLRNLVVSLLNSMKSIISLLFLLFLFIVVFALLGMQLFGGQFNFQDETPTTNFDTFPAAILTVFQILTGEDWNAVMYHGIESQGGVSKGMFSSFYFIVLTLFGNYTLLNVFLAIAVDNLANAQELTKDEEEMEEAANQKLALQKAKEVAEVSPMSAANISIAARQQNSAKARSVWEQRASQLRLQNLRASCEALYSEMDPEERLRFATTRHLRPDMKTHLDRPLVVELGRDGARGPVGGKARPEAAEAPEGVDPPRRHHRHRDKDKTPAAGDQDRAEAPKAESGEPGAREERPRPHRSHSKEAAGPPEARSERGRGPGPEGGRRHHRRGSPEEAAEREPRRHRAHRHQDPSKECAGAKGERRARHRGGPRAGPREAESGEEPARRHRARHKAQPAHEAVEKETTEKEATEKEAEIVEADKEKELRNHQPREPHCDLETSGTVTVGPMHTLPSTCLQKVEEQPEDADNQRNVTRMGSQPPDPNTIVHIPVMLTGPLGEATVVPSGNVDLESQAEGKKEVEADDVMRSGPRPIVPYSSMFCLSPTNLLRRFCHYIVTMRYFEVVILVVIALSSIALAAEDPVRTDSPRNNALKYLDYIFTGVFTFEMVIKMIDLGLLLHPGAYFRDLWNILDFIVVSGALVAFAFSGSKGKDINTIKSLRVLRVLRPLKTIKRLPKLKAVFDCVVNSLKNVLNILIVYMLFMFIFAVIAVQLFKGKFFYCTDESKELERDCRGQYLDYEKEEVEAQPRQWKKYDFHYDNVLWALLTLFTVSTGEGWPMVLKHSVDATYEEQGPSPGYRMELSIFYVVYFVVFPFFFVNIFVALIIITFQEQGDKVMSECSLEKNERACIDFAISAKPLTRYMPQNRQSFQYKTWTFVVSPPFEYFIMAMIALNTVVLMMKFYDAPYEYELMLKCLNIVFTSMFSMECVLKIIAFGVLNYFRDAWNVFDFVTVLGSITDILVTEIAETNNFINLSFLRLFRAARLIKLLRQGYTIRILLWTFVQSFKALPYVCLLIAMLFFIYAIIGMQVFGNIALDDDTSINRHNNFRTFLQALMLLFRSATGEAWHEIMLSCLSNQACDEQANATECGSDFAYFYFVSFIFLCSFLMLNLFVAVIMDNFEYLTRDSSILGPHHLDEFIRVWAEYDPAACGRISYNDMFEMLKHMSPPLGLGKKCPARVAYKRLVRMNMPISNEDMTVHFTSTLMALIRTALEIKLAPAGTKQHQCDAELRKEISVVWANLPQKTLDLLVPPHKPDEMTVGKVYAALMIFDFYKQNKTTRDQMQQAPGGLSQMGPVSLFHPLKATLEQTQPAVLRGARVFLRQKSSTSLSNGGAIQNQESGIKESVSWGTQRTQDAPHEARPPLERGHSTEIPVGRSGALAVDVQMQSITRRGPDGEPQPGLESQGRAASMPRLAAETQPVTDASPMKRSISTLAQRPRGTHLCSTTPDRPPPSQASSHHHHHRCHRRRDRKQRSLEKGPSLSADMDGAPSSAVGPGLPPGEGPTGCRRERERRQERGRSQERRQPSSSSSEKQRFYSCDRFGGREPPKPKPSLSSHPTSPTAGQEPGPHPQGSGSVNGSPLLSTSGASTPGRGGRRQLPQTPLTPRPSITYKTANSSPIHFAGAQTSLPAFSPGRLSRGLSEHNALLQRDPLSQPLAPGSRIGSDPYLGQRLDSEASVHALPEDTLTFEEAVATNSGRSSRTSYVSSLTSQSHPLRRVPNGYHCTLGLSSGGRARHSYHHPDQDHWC
T3 sequence (Q02410 whole entry): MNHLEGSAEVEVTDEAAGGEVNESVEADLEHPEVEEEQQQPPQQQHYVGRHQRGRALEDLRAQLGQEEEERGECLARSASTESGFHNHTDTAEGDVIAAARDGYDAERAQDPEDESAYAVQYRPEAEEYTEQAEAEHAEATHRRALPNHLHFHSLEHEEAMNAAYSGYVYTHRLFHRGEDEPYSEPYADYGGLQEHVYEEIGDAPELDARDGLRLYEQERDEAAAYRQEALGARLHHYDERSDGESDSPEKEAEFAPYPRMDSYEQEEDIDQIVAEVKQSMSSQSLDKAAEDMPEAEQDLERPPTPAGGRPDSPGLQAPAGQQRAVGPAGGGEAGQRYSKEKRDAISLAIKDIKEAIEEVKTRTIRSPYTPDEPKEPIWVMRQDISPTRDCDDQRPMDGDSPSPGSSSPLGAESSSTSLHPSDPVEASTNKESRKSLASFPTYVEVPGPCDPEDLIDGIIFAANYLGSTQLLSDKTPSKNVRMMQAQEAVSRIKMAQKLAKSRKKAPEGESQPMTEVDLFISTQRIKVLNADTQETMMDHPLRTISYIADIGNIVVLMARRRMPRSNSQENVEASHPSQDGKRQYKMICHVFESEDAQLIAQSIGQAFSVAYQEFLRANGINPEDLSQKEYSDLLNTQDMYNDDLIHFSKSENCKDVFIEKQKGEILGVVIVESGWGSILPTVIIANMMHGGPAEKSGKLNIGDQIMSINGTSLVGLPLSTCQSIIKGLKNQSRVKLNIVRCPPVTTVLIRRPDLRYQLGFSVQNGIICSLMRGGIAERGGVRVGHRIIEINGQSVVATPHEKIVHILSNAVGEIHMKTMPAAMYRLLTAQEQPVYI

[5] = molecular target: Eukaryotic translation initiation factor 4E (Mus musculus, UniProt P63073); assay: eIF4E–eIF4G protein interaction inhibitors, dose response, biochemical, TR-FRET (AID 855); assay type: functional;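 note: potency for disrupting eIF4E binding to eIF4GI seen as loss of FRET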
Chain of Eukaryotic translation initiation factor 4E (P63073 whole entry): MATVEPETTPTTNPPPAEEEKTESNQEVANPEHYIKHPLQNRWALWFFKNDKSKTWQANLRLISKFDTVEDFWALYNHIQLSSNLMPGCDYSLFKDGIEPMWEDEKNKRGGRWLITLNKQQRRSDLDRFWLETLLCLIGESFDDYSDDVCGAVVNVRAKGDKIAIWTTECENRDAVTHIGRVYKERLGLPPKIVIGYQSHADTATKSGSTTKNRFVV

[6] = molecular target: Glucose-6-phosphate 1-dehydrogenase (Homo sapiens, UniProt P11413); assay: human G6PD enzyme inhibitors, dose response, selectivity assay for P. falciparum G6PD inhibitor project, biochemical, fluorescence (AID 504792); assay type: functional
Chain of Glucose-6-phosphate 1-dehydrogenase (P11413 whole entry): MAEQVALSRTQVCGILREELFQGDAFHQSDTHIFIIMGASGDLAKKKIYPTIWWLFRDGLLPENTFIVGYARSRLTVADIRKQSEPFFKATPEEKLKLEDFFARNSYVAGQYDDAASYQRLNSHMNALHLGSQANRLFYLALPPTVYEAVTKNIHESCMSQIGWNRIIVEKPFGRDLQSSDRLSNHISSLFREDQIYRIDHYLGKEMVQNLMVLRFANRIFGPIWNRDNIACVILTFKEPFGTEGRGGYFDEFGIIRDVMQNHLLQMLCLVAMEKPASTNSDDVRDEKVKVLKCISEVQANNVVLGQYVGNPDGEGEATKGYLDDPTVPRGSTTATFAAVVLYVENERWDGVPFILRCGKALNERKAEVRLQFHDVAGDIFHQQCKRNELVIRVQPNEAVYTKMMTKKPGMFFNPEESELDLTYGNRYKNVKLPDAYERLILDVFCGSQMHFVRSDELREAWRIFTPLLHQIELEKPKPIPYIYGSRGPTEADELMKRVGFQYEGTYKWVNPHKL

[7] = molecular target: T4, Mannose-6-phosphate isomerase (Homo sapiens, UniProt P34949); assay: inhibitors of human PMI, primary screen, biochemical, fluorescence intensity, coupled assay (AID 1209)
T4 sequence (P34949 whole entry): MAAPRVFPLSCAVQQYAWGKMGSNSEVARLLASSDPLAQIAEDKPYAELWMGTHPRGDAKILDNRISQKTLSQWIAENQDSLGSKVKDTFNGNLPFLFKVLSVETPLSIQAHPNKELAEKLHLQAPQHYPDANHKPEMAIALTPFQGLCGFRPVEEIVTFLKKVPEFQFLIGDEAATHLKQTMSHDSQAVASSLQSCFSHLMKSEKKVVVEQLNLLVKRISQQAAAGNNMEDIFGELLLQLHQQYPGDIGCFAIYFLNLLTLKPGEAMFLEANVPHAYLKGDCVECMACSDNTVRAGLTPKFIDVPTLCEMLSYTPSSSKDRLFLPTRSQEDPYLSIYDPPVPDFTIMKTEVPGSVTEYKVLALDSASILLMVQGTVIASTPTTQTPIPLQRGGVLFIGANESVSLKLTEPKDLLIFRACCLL

[8] = molecular target: T5, Low molecular weight phosphotyrosine protein phosphatase (Homo sapiens, UniProt P24666); assay type: functional; settings: read-out: IC50_Mean;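 note: Dose-response confirmation assay measuring inhibition of LMPTP enzyme activity by fluorescence intensity read-out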
T5 sequence (P24666 whole entry): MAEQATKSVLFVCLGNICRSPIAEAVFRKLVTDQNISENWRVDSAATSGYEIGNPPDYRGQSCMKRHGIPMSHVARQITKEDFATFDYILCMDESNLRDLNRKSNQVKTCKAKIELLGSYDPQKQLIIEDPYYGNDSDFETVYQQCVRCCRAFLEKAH

[9] = molecular target: DNA dC->dU-editing enzyme APOBEC-3G (Homo sapiens, UniProt Q9HC16); assay: Dose Response confirmation of small molecule APOBEC3G DNA Deaminase Inhibitors via a fluorescence-based single-stranded DNA deaminase assay. [Related pubchem assays (depositor defined):AID493012, AID493028]; assay type: functional
Chain of DNA dC->dU-editing enzyme APOBEC-3G (Q9HC16 whole entry): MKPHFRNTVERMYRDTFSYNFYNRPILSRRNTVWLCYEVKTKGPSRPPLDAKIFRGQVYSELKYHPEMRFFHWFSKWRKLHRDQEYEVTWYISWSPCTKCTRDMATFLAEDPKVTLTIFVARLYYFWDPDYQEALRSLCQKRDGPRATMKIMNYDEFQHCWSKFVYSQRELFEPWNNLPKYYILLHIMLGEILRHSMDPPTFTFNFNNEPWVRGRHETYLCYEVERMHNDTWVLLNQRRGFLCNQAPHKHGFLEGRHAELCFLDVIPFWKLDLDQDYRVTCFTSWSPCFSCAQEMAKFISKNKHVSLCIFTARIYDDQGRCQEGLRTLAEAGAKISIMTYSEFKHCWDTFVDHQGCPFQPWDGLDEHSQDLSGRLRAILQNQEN

Cytochrome P450 3A4 = Cytochrome P450 3A4 (Homo sapiens, UniProt P08684);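 note: CYP3A4 tested as one member of a cytochrome P450 panel screen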
Chain of Cytochrome P450 3A4 (P08684 whole entry): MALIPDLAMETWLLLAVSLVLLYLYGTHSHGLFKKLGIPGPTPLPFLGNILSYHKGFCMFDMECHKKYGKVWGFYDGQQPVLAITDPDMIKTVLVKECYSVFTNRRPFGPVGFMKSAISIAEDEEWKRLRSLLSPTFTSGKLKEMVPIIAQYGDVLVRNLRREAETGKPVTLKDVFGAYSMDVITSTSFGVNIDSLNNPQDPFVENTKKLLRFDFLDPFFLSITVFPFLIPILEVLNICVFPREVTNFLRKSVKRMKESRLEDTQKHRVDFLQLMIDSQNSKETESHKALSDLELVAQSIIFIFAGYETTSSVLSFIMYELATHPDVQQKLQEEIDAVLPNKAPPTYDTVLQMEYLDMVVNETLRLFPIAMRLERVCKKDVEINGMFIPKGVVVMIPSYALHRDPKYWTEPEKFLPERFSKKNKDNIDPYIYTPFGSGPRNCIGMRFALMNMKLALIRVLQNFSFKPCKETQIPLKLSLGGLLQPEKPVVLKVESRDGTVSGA

Hexokinase-1 = molecular target: T6, Hexokinase-1 (Homo sapiens, UniProt P19367); assay: hexokinase 1 activators, dose response, selectivity assay for HKDC1 activator project, biochemical (AID 504762); assay type: functional
T6 sequence (P19367 whole entry): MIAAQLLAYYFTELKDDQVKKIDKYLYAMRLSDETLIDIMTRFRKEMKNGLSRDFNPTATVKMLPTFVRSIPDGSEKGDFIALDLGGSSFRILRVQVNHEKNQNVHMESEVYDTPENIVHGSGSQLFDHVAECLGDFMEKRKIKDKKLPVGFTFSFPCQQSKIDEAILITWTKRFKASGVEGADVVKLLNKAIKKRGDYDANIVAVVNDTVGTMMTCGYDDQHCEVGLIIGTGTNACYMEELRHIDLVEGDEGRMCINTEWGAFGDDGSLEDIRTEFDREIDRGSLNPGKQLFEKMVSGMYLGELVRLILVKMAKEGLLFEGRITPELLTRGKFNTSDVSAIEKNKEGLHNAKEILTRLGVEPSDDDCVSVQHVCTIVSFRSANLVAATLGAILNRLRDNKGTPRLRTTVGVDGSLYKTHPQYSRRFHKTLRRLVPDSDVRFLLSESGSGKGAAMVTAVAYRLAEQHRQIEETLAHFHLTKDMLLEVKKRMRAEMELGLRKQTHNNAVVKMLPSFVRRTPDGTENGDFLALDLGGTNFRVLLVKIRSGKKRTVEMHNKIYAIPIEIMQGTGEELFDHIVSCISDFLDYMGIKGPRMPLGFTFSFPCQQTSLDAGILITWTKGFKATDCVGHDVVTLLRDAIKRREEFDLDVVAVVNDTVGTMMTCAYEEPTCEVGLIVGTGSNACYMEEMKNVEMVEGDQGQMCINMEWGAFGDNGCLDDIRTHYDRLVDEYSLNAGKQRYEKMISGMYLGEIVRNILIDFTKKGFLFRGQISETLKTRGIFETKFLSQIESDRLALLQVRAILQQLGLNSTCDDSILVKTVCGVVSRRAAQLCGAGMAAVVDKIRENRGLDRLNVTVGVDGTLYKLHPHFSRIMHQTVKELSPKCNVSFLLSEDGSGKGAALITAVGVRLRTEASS

Hexokinase HKDC1 = molecular target: T7, Hexokinase HKDC1 (Homo sapiens, UniProt Q2TB90); assay: HKDC1 hexokinase activators, dose response, biochemical, W721R variant (AID 504730); assay type: functional
T7 sequence (Q2TB90 whole entry): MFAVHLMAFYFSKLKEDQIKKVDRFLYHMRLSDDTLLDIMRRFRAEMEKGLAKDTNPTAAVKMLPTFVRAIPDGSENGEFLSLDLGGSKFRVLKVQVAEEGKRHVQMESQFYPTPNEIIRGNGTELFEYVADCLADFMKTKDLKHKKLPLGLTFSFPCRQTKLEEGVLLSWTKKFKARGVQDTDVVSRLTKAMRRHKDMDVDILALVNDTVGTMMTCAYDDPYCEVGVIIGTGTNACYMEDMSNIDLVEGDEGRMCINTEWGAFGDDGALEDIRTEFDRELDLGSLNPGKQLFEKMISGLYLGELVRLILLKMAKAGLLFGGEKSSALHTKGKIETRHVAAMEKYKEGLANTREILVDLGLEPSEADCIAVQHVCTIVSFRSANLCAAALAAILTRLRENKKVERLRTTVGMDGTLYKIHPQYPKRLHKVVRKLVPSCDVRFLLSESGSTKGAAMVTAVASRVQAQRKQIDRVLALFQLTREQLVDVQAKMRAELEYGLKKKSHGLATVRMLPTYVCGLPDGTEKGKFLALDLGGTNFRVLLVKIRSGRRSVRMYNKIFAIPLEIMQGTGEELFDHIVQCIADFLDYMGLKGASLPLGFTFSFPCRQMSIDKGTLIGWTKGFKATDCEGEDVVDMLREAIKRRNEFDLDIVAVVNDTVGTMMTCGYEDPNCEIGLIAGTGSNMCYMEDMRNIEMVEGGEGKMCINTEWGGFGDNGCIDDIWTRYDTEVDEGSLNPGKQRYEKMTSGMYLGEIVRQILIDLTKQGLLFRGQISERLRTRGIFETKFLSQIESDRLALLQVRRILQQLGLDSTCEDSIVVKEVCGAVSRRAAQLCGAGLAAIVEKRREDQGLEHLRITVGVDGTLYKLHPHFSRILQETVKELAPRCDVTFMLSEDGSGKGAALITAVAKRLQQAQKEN

cells = assay type: functional
[10] = molecular target: T3, Voltage-gated N-type calcium channel alpha-1B subunit/Amyloid beta A4 precursor protein-binding family A member 1; assay type: protein assay; remark: listed apart in the source
Exodeoxyribonuclease V = Exodeoxyribonuclease V (Escherichia coli (strain K12), UniProt P04993+P07648+P08394); assay: E. coli RecBCD inhibitors, dose response, counter-screen for AddAB inhibitor project, absorbance, V66 E. coli, mutant T4 phage (AID 492957); assay type: functional, cell-based, Escherichia coli str. K-12 substr. MG1655
Estrogen receptor = molecular target: T8, Estrogen receptor (Homo sapiens, UniProt P03372);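 note: potency for inhibiting coactivator peptide recruitment to the receptor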
T8 sequence (P03372 whole entry): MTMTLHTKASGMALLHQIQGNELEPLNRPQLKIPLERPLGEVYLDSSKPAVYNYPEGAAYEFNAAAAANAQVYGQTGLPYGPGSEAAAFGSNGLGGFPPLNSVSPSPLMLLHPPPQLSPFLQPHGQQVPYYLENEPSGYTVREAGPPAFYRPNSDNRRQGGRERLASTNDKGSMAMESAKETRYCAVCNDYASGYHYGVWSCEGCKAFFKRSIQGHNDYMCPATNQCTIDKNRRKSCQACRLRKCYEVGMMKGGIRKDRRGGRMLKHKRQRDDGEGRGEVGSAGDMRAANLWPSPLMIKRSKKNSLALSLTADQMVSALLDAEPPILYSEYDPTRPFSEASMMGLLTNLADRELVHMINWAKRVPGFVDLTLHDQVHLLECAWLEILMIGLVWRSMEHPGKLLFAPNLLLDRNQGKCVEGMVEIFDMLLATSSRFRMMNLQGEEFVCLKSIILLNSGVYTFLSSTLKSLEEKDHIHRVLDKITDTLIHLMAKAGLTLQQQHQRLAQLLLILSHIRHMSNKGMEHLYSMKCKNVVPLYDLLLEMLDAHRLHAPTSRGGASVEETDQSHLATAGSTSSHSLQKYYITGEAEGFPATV

[11] = Counterscreen for AddAB inhibitors: absorbance-based bacterial cell-based high throughput dose response assay for inhibitors of bacterial viability. [Related pubchem assays (depositor defined):AID435030, AID449728, AID449731, AID488942, AID488955, AID488956]; assay type: functional

**Q.** For `C#CCOCCOCCOCCNc1nc(N2CCN(C(=O)CCCCCCCCCCNC(=O)[C@@H](CCSC)n3cc(CCO)nn3)CC2)nc(N2CCN(C(=O)CCCCCCCCCCNC(=O)[C@H](CCCN=C(N)N)n3cc(C[C@@H](C)CC)nn3)CC2)n1`, which IC50 (Bcl-2-related protein A1) is on record?
**A.** 3.08 µM (active)

**Q.** What about the IC50 [1] of the same compound?
**A.** 5.55 µM (active)

**Q.** And the IC50 [2]?
**A.** 3.03 µM (active)

**Q.** For `COc1cc(/N=c2\ssnc2Cl)cc(OC)c1OC`, which IC50 [3] is on record?
**A.** > 100 µM (inactive)

**Q.** What about the IC50 [4] of the same compound?
**A.** 5.22 µM (active)

**Q.** What about the IC50 [5] of the same compound?
**A.** 20.4 µM (active)

**Q.** And the IC50 [6]?
**A.** 69.4 µM (inactive)

**Q.** What about the IC50 [7] of the same compound?
**A.** 4.76 µM (active)

**Q.** What about the IC50 [8] of the same compound?
**A.** 80 µM (inactive)

**Q.** What about the IC50 [9] of the same compound?
**A.** 7.2 µM (active)

**Q.** And the AC50 (Cytochrome P450 3A4)?
**A.** 31.6 µM (inconclusive)

**Q.** And the EC50 (Hexokinase-1)?
**A.** 55.3 µM (inactive)

**Q.** What about the EC50 (Hexokinase HKDC1) of the same compound?
**A.** 56.9 µM (inactive)

**Q.** What about the IC50 (cells) of the same compound?
**A.** 43.6 µM (active)

**Q.** What about the IC50 [10] of the same compound?
**A.** 10.8 µM (active)

**Q.** With `Cc1cccc(NC(=O)Cn2cc(C(=O)c3ccco3)c3ccccc32)c1` as the compound, how does the IC50 (Exodeoxyribonuclease V) read?
**A.** > 119 µM (inactive)

**Q.** And the IC50 (Estrogen receptor)?
**A.** > 50 µM (not active)

**Q.** And the IC50 [11]?
**A.** > 119 µM (inactive)

**Q.** With `Cc1cc(C2=NN=C(Nc3ccc(S(=O)(=O)N4CCOCC4)cc3)SC2)c(C)n1C` as the compound, how does the EC50 (Hexokinase-1) read?
**A.** 46 µM (inactive)

**Q.** What about the EC50 (Hexokinase HKDC1) of the same compound?
**A.** 24.7 µM (inactive)
